One assay concerns the target T1, LPA1 (Mus musculus, UniProt P61793).
T1 construct: from tissue; host or cells: mouse brain (homogenate; forebrain of dosed C57BL6/N mice in the in vivo studies)
Nature of the assay: In vivo brain LPA1 receptor occupancy with [3H]-OPC3497. The protocol: [^3H]-OPC3497 was diluted to 9.8 µCi/mL in saline and administered via IV injection to the lateral tail vein at a dose volume of 5 ml/kg at the times indicated. Mice were euthanized by decapitation, trunk blood collected into K3EDTA tubes and stored on wet ice, each brain rapidly dissected and the forebrain isolated, weighed and placed into a 5 ml polypropylene tube. Tissues were diluted with a 10 × volume of ice-cold binding buffer (50 mM HEPES, 100 mM NaCl, 2 mM EDTA, pH 7.4). Brains were homogenized and 350 µl of the homogenate was filtered over Whatman GF/B filters (GE Life Sciences, Marlborough, MA) pre-wetted with 0.5% polyethyleneimine. Filters were washed with cold 50 mM TRIS–HCl, 154 mM NaCl, 0.05% Tween 20, pH 7.4 twice and dried in an oven (~ 40–50 °C). 5 ml Ultima Gold F scintillation fluid (Perkin Elmer, Boston, MA, Boston, MA) was added to each tube and samples read on a Beckman LS6500 liquid scintillation counter. After all samples were collected, dissected, and filtered, the previously collected blood in K3EDTA tubes was centrifuged (1450 × g, 10 min, 4 °C) to separate plasma.

The test system of assay [1] is CC1+/OLIG2+ oligodendrocytes. Briefly: In vivo CC1 induction assay. Further details: species or system mouse. Conditions: single 3 mg/kg dose, brains collected 5 days later. The text has this: Sections were immunostained for the mature oligodendrocyte marker, CC1, and the oligodendroglial marker, OLIG2 to represent the total OPC/oligodendrocyte population.
Female C57Bl/6 mice (9–11 weeks old) were used in this experiment, n = 5/group. […] On day 5, mice were sacrificed and brains submerged in formalin. Tissue was sectioned at 40 µm on a sliding microtome (ThermoFisher, Microm HM450, Waltham, MA). Four sections per mouse were immunostained. Sections were permeabilized and blocked by incubation with 20% goat serum (Millipore Sigma, St. Louis, MO) and 0.2% Triton X-100 (Millipore Sigma, St. Louis, MO) in PBS. Oligodendrocytes were detected with a rat monoclonal antibody to Anti-APC (1:500, Calbiochem, San Diego, CA), and the total pool OPC/oligodendrocyte pool were detected with a rabbit monoclonal antibody to Olig-2 (1:500, Invitrogen, Carlsbad, CA). Alexa Fluor 594 and 647 IgG secondary antibodies against rat and rabbit (1:1000, Invitrogen, Carlsbad, CA) were used for primary antibody detection. Cell nuclei were identified with Hoechst (1:1000, Invitrogen, Carlsbad, CA). […] Detection and quantification of the cells were performed using NIS Elements imaging software (Nikon, Minato, Tokyo).
Supplemental Figure 5. […] Sections were immunostained using antibodies against CC1 (mature oligodendrocytes), Olig2 (oligodendroglial marker), and counterstained with Hoechst. […]

A further assay relates to microglia. Briefly: Microglial myelin debris phagocytosis assay. Type of assay: cell-based, rat. The settings on record: any concentration, activated microglia, 90 min myelin debris. Here is the method: Fluoromyelin-labeled myelin debris was added for 90 min and then the cultures were fixed. IBA1^+/fluoromyelin^+ cells were quantified and normalized to total IBA1^+ cells.
For phagocytosis, microglia were harvested from cortical cultures generated from P2 rats. Cortices were isolated, meninges removed, minced and digested in 0.05% trypsin (Invitrogen, Carlsbad, CA, Carlsbad, CA) for 15 min at 37 °C. Tissue was allowed to settle, trypsin removed and HBSS (Corning, Glendale, AZ) with 20% FBS (20% HBSS) was added to halt further digestion. Tissue was washed again in 20% HBSS and resuspended in DMEM with 10% FBS and penicillin/streptomycin (10% DMEM). Cells were plated in a T150 flask and cultured for 10 days with media changes every other day. Microglia were mechanically isolated by tapping flask against the hood surface. Microglia were transferred to a conical and centrifuged at 800 × g for 15 min and resuspended in 10% DMEM, plated in 96 wells at a density of 5000/well and cultured for 3 days. […] Fluoromyelin labeled myelin debris was added to each well and incubated for 90 min. Microglia were then fixed and immunostained for IBA1 (Invitrogen, Carlsbad, CA, Carlsbad, CA). […]
Supplemental Figure 7. […] Total IBA1^+ and IBA1^+/fluoromyelin^+ cells were counted. […]

The values that follow come from publication PMC11079064, “Discovery of a brain penetrant small molecule antagonist targeting LPA1 receptors to reduce neuroinflammation and promote remyelination in multiple sclerosis” (Scientific Reports, 2024).

Read-outs that look alike come from different tables or passages of the source.

T1 sequence (P61793 whole entry): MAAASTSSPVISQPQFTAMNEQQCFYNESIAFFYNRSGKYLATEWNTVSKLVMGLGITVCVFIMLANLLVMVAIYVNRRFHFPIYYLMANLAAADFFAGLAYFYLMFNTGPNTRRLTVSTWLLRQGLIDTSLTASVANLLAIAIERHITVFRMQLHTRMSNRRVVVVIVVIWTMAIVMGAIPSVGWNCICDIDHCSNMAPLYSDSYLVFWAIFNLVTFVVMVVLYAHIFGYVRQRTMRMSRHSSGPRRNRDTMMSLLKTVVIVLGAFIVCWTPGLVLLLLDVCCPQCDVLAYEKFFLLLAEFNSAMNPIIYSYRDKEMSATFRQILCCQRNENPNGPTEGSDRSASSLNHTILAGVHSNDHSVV

Broadly, the EC50 is the midpoint of the concentration-response curve. Consider `COc1ccc(NC(=O)N(c2ccccc2C(C)C)C2CCC(C(=O)O)CC2)c(OC(F)F)n1` (centres unmarked) [PIPE-791], for which, on LPA1 (3 mg/kg oral, followed out to 7 days), the “time for which LPA1 occupancy was sustained” value is reported as 24 h. Besides, the EC50 at LPA1 (once daily for 4 consecutive days (steady state), read-out: unbound brain EC50) stood at 2.4 nM; at LPA1 (single oral dose, unbound brain concentration versus occupancy, read-out: unbound brain EC50 (Cu, brain)), 2.2 nM. For the same compound, the “LPA1 receptor occupancy ED50” value was 0.17 mg/kg at LPA1 (single oral dose 2 h prior to radioligand, mouse brain); 0.19 mg/kg at LPA1 (single oral dose 24 h prior to radioligand, mouse brain); 0.03 mg/kg at LPA1 (steady state: once daily for 4 days, occupancy 2 h after fourth dose). Moreover, the “increase in CC1+/OLIG2+ oligodendrocytes” value in assay [1] amounted to 163%. In addition, the “effect on myelin phagocytosis compared to vehicle” value with microglia was “No significant decrease”.
